Test results published in US7091351B2, “Vanadium compounds for treating cancer” (Parker Hughes Institute, priority 1998, dated 2006).

Assays:
Format in all cases: cell-based, human
[1] = tested on: NALM-6 B-lineage acute lymphoblastic leukemia cells; test: MTT cytotoxicity assay of vanadocenes, NALM-6 cells; conditions: 24 h
Protocol: (§1) Human testicular cancer cell lines, Tera-2 (embryonal carcinoma) and Ntera-2 (pluripotent embryonal carcinoma) were obtained from the American Type Culture Collection (ATCC) (Rockeville, Md.) and propagated in T-25, T-75, or T-150 cm^2 tissue culture flasks (Corning Corp., Corning, N.Y.) in McCoy's 5A medium and Dulbecco's modified Eagle's medium respectively. Both media were supplemented with 10% fetal calf serum (FCS), 4 mM glutamine, 100 U/ml penicillin G, and […] streptomycin sulfate. All tissue culture reagents were obtained from Life Technologies Inc. (GIBCO-BRL), Gaithersburg, Md. Cell lines were cultivated for a minimum of two passages after thawing prior to experimentation. Other cell lines that were used in this study were the human B-lineage acute lymphoblastic leukemia (ALL) cell line NALM-6. Uckun, F. M., Evans, W. E., Forsyth, C. J., Waddick, K. G., Tuel-Ahlgren, L., Chelstrom, L. M., Burkhardt, A., Bolen, J., Myers, D. E. Biotherapy of B-cell precursor leukemia by targeting genistein to CD19-associated tyrosine kinase. Science (Washington DC) 267:886–91, 1995; T-lineage ALL cell line MOLT-3, Waurzyniak, B., Shneider, E. A., Tumer, N., Yanishevski, Y., Gunther, R., Chelstrom, L., Wendorf, H., Myers, D. E., Irvin, J. D., Messinger, Y., Ek, O., Zeren, T., Chandan-Langlie, M., Evans, W. E., Uckun, F. M. In vivo toxicity, pharmacokinetics, and antileukemic activity of TXU (anti-CD7)-pokeweed antiviral protein immunotoxin. Clinical Cancer Research 3:881–890, 1997; AML cell line HL-60, Perentesis, J. P., Waddick, K. G., Bendel, A. E., Shao, Y., Warman, B. E., Chandan-Langlie, M., and Uckun, F. M. Induction of apoptosis in multi-drug resistant andradiation-resistant acute myeloid leukemia cells by a recombinant fusion toxin directed against the granulocyte macrophage colony stimulating factor receptor. Clin. Cancer Res. 3:347–355, 1997; breast cancer cell lines MDA-MB-231 and BT-20, Uckun, F. M., Narla, R. K., Jun, X., Zeren, T., Venkatachalam, T., Waddick, K. G., Rostostev, A., Myers, D. E. Cytotoxic activity of EGF-genstein against breast cancer cells. Clin. Cancer Res. 4:901–912, 1998; glioblastoma cell lines U87 and U373, Narla, R. K., Liu, X., Myers, D. E., and Uckun, F. M. 4-(3′-Bromo-4′hydroxylphenyl)-amino-6,7-dimethoxyquinazoline (WHI-P154): A novel quinazoline derivative with potent cytotoxic activity against human glioblastoma cells. Clin. Cancer Res. 4:1405–1414, 1998.
(§2) MTT (3-[4,5-dimethyl thiazol-2-yl]-2,5-diphenyltetrazolium bromide)-based colorimetric assays were used for evaluation of the cytotoxicity of vanadocene compounds. Mosmann, T. Rapid colorimetric assay for cellular growth and survival: application to proliferation and cytotoxicity assays. J. Immunol. Methods, 65: 55–63, 1983. Briefly, cells were harvested with 0.125% (w/v) trypsin-0.02% EDTA (GIBCO-BRL) from exponential-phase maintenance cultures and centrifuged (300 g×5 min). After suspension and counting, cells were dispensed within triplicate 96-well tissue culture plates in 100 μl volumes. After 24 h incubation, the culture medium was discarded and replaced with 100 μl of fresh medium containing serial two-fold dilutions of drugs in medium to yield 1.9 μM to 250 μM. All compounds were reconstituted in DMSO to a concentration of 100 mM, and the stock solution was made fresh for each experiment. Control wells consisted of medium containing 0.25% of DMSO alone were used for solvent control. […]

[2] = tested on: Tera-2 testicular cancer cells; test: Flow cytometric TUNEL apoptosis assay, TERA-2 cells; conditions: 24 h, TUNEL-positive nuclei
Protocol: (§3) A flow cytometric two-color terminal […] transferase (TdT)-mediated digoxigenin-uridine triphosphate (dUTP) nick-end labeling assay (TUNEL) was employed to detect apoptotic nuclei. Gavrieli, Y., Sherman, Y., Ben-Sasson, S. A. Identification of programmed cell death in situ via specific labeling of nuclear DNA fragmentation. J. Cell Biol., 119: 493–501, 1992. Exponentially growing cells (10^6/ml) were incubated in DMSO alone (0.1%) or treated with 100 μM each of the 16 vanadocenes (VDB, VDC, VMDC, VDI, VDA, VDCN, VDOCN, VDSCN, VDSeCN, VDT, VDCO, VDFe, VD(acac), VDH, VD(dpy), and VD(dtc) in 0.1% DMSO for 24 h. Cells were washed in PBS, fixed in 4% paraformaldehyde in PBS for 15 min on ice. Following two washings in PBS, they were permeabilized with 0.1% Triton X-100 in 0.1% sodium citrate for 2 min on ice, and washed twice in PBS. Labeling of exposed 3′-hydroxyl (3′-OH) ends of fragmented nuclear DNA was performed using TdT and fluorescein isothiocyanate (FITC)-conjugated dUTP according to the manufacturer's recommendations (Boehringer Mannheim, Indianapolis, Ind.). Cells were counterstained with 5 μg/ml PI. Control samples included: (i) untreated cells; (ii) cells incubated with the reaction mixture without the TdT enzyme. Cells were analyzed with a FACS Calibur flow cytometer (Becton Dickinson, Mountain View, Calif.). Relative DNA content (PI) was detected with band-pass filter 585/42, and dUTP incorporation (FITC) was detected with band-pass filter 530/30. Fluorescence was compensated for in the acquisition software using single-label control samples. Data were acquired in listmode, gated to 10,000 events per sample, and analyzed with the use of CELLQuest software program (Becton Dickinson). […] Vanadocene-induced apoptosis is shown by an increase in the number of cells staining with FITC-dUTP. The M1 and M2 gates were used to demarcate non-apoptotic and apoptotic PI-counterstained cell populations, respectively. TUNEL assays were performed using two testicular cell lines Tera-2 and Ntera-2 following exposure to each of the 16 vanadocenes. In other experiments, MC540 binding (as an early marker of apoptosis) and PI permeability (as a marker of advanced stage apoptosis) were simultaneously measured in human cancer cells 24 hours after exposure to vanadocenes, as previously described. Uckun, F. M., Narla, R. K., Jun, X., Zeren, T., Venkatachalam, T., Waddick, K. G., Rostostev, A., Myers, D. E. Cytotoxic activity of EGF-genstein against breast cancer cells. Clin. Cancer Res. 4:901–912, 1998. Vassilev, A., Ozer, Z., Navara, C., Mahajan, S., and Uckun, F. M. Bruton's tyrosine kinase as an inhibitor of the Fas/CD95 death-inducing signaling complex. J. Biol. Chem. 274:1646–56, 1999. Whole cells were analyzed using a FACStar Plus flow cytometer (Becton Dickinson, San Jose, Calif.). All analyses were done using 488 nm excitation from an argon laser. MC540 and PI emissions were split with a 600 nm short pass dichroic mirror and a 575 nm band pass filter was placed in front of one photomultiplier tube to measure MC540 emission and a 635 nm band pass filter was used for PI emission.

[3] = tested on: U373 glioblastoma cells; test: MTT cytotoxicity assay of vanadocenes, U373 cells; conditions: 24 h
Protocol: as §1
as §2, with “control. Culture plates were then incubated for 24 h before adding 10 μl of MTT solution (5 mg/ml in PBS) to each well. Wells containing only medium and MTT were used as controls for each plate. The tetrazolium/formazan reaction was allowed to proceed for 4 h at 37° C., and then 100 μl of the solubilization buffer (10% sodium dodecyl sulfate in 0.1% HCl) were added to all wells and mixed thoroughly to dissolve the dark blue formazan crystals.” for “control.”

[4] = tested on: Tera-2 testicular cancer cells; test: MTT cytotoxicity assay of vanadocenes, TERA-2 cells; conditions: 24 h, 1.9-250 μM
Protocol: as §1
as §2, with “control. Culture plates were then incubated for 24 h before adding 10 μl of MTT solution (5 mg/ml in PBS) to each well. Wells containing only medium and MTT were used as controls for each plate. The tetrazolium/formazan reaction was allowed to proceed for 4 h at 37° C., and then 100 μl of the solubilization buffer (10% sodium dodecyl sulfate in 0.1% HCl) were added to all wells and mixed thoroughly to dissolve the dark blue formazan crystals.” for “control.”

[5] = tested on: Ntera-2 testicular cancer cells; test: MTT cytotoxicity assay of vanadocenes, NTERA-2 cells; conditions: 24 h, 1.9-250 μM
Protocol: as §1
as §2, with “control. Culture plates were then incubated for 24 h before adding 10 μl of MTT solution (5 mg/ml in PBS) to each well. Wells containing only medium and MTT were used as controls for each plate. The tetrazolium/formazan reaction was allowed to proceed for 4 h at 37° C., and then 100 μl of the solubilization buffer (10% sodium dodecyl sulfate in 0.1% HCl) were added to all wells and mixed thoroughly to dissolve the dark blue formazan crystals.” for “control.”

[6] = tested on: Ntera-2 testicular cancer cells; test: Flow cytometric TUNEL apoptosis assay, NTERA-2 cells; conditions: 24 h, TUNEL-positive nuclei
Protocol: as §3

[7] = tested on: U87 glioblastoma cells; test: MC540 binding / PI permeability apoptosis assay, U87; conditions: 100 μM, 24 hours
Protocol: (§4) A flow cytometric two-color terminal […] transferase (TdT)-mediated digoxigenin-uridine triphosphate (dUTP) nick-end labeling assay (TUNEL) was employed to detect apoptotic nuclei. Gavrieli, Y., Sherman, Y., Ben-Sasson, S. A. Identification of programmed cell death in situ via specific labeling of nuclear DNA fragmentation. J. Cell Biol., 119: 493–501, 1992. […] Cells were analyzed with a FACS Calibur flow cytometer (Becton Dickinson, Mountain View, Calif.). Relative DNA content (PI) was detected with band-pass filter 585/42, and dUTP incorporation (FITC) was detected with band-pass filter 530/30. Fluorescence was compensated for in the acquisition software using single-label control samples. Data were acquired in listmode, gated to 10,000 events per sample, and analyzed with the use of CELLQuest software program (Becton Dickinson). […] In other experiments, MC540 binding (as an early marker of apoptosis) and PI permeability (as a marker of advanced stage apoptosis) were simultaneously measured in human cancer cells 24 hours after exposure to vanadocenes, as previously described. […] Whole cells were analyzed using a FACStar Plus flow cytometer (Becton Dickinson, San Jose, Calif.). […]

[8] = tested on: HL60 acute myeloid leukemia cells; test: MC540 binding / PI permeability apoptosis assay, HL-60; conditions: 100 μM, 24 hours
Protocol: as §4

[9] = tested on: MDA-MB-231 breast cancer cells; test: MC540 binding / PI permeability apoptosis assay, MDA-MB-231; conditions: 100 μM, 24 hours
Protocol: as §4

[10] = tested on: BT-20 breast cancer cells; test: MC540 binding / PI permeability apoptosis assay, BT-20; conditions: 100 μM, 24 hours
Protocol: as §4

Question: How did the IC50 [1] turn out when `[N-]=[N+]=[N-].[N-]=[N+]=[N-].[V+2].c1cc[cH-]c1.c1cc[cH-]c1` [VDA, VCp2(N3)2] was run?
Answer: 16 µM

Question: And the “% Apoptosis at 100 μM TERA-2” value [2]?
Answer: 85 (78, 92) %

Question: What about the IC50 [3] of the same compound?
Answer: 51 µM

Question: And the IC50 [4]?
Answer: 70 µM

Question: What about the IC50 [5] of the same compound?
Answer: 68 µM

Question: And the “% Apoptosis at 100 μM NTERA-2” value [6]?
Answer: 85 (78, 93) %

Question: What does the source list for `[Br-].[Br-].[V+2].c1cc[cH-]c1.c1cc[cH-]c1` [VDB, VCp2Br2]?
Answer: IC50 [1]: 17 µM; % Apoptosis at 100 μM TERA-2 [2]: 84 (83, 86) %; IC50 [3]: 62 µM; IC50 [4]: 154 µM; IC50 [5]: 70 µM; % Apoptosis at 100 μM NTERA-2 [6]: 93 (93, 94) %

Question: Which results are given for `[I-].[I-].[V+2].c1cc[cH-]c1.c1cc[cH-]c1` [VDI, VCp2I2]?
Answer: IC50 [1]: 18 µM; % Apoptosis at 100 μM TERA-2 [2]: 72 (71, 73) %; IC50 [3]: 5 µM; IC50 [4]: 221 µM; IC50 [5]: 204 µM; % Apoptosis at 100 μM NTERA-2 [6]: 57 (46, 69) %

Question: What does the source list for `C1=C[CH]([V+2][CH]2C=CC=C2)C=C1.[N-]=C=[Se].[N-]=C=[Se]` [VDSeCN, VCp2(NCSe)2]?
Answer: IC50 [1]: 3 µM; % Apoptosis at 100 μM TERA-2 [2]: 78 (75, 80) %; IC50 [3]: 2 µM; IC50 [4]: 9 µM; IC50 [5]: 22 µM; cells with dual MC540/PI fluorescence (advanced stage apoptosis), U87 [7]: 79%; total percentage of apoptotic cells (early and advanced stage), U87 [7]: 90%; cells with dual MC540/PI fluorescence (advanced stage apoptosis), HL-60 [8]: 51%; total percentage of apoptotic cells (early and advanced stage), HL-60 [8]: 98%; % Apoptosis at 100 μM NTERA-2 [6]: 99.6 ± 0.2 (N = 4) %; cells with dual MC540/PI fluorescence (advanced stage apoptosis), MDA-MB-231 [9]: 67%; total percentage of apoptotic cells (early and advanced stage), MDA-MB-231 [9]: 72%; cells with dual MC540/PI fluorescence (advanced stage apoptosis), BT-20 [10]: 40%; total percentage of apoptotic cells (early and advanced stage), BT-20 [10]: 61%
